From US12358901B2, “KV3 modulators” (priority 2018, dated 2025)

Experiments:
[1] = tested on: Salmonella typhimurium (TA1535, TA1537, TA98 and TA100) and Escherichia coli WP2 uvrA (pKM101); assay: Ames testing (bacterial mutagenicity, with and without S9-mix); conditions: absence and presence of S9-mix; for Ames Result (associated aniline): aniline associated with the compound; for Ames Result (compound): 5 to 5000 ug/plate
[2] = target: human Kv3.1 channels (hKv3.1) (Homo sapiens, UniProt P48547); assay: cell-based; format: cell-based; conditions: for Kv3.1 pEC50: HEK-hKv3.1 cells, -15 mV voltage step, normalised to 50 microM reference compound; for Kv3.1 max R %: maximum response relative to reference compound (50 microM)
Source text: The ability of the compounds of the invention to modulate the voltage-gated potassium channel subtypes Kv3.3/Kv3.2/Kv3.1 may be determined using the following assay. Analogous methods may be used to investigate the ability of the compounds of the invention to modulate other channel subtypes.
To assess compound effects on human Kv3.1 channels (hKv3.1):
Human embryonic kidney (HEK)-hKv3.1 cell line is generated by transfecting HEK-293 cells with an expression vector with human Kv3.1 (NM_004976.4). Cells are cultured with MEM supplemented with 10% Heat-Inactivated FBS, 2 mM L-glutamine, 1% Penicillin-Streptomycin, and 0.6 mg/ml of Geneticin (G418). HEK-hKv3.1b cells were amplified in T175 cm2 flask at 37° C. with 5% CO2, using MEM amplification medium, containing the G418 selection antibiotic (0.6 mg/ml). Cells were detached every 3-4 days, using DPBS to wash twice the flask, then TrypLE to dislodge the cells, and re-plated at a density of 2-4×10^6 cells/flask.
The day of the experiment, cells are removed from the incubator and the culture medium removed. Cells are washed with 5 ml of Dulbecco's PBS (DPBS) calcium and magnesium free and detached by the addition of 3 ml Versene (Invitrogen, Italy) followed by a brief incubation at 37° C. for 5 minutes. The flask is tapped to dislodge cells and 10 ml of DPBS containing calcium and magnesium is added to prepare a cell suspension. The cell suspension is then placed into a 15 ml centrifuge tube and centrifuged for 2 min at 1200 rpm. After centrifugation, the supernatant is removed and the cell pellet re-suspended in 4 ml of DPBS containing calcium and magnesium using a 5 ml pipette to break up the pellet. Cell suspension volume is then corrected to give a cell concentration for the assay of approximately 3 million cells per ml.
Experiments are conducted at r.t. using IonWorks Quattro™ planar array electrophysiology technology (Molecular Devices Corp.) with PatchPlate™ PPC. Stimulation protocols and data acquisition are carried out using a microcomputer (Dell Pentium 4). Planar electrode hole resistances (Rp) are determined by applying a 10 mV voltage step across each well. These measurements are performed before cell addition. After cell addition and seal formation, a seal test is performed by applying a voltage step from −80 mV to −70 mV for 160 ms. Following this, amphotericin-B solution is added to the intracellular face of the electrode to achieve intracellular access. Cells are held at −70 mV. Leak subtraction is conducted in all experiments by applying 50 ms hyperpolarizing (10 mV) prepulses to evoke leak currents followed by a 20 ms period at the holding potential before test pulses.
For hKv3.2 and hKv3.1, assays from the holding potential of −70 mV, a first test pulse at −15 mV was applied for 100 ms and after 100 ms at −70 mV a second pulse at +40 mV was applied for 50 ms. Cells were then maintained for 100 ms at −100 mV and another pulse from −70 mV to +40 mV (duration 50 ms) was applied to clamp later the voltage at −40 mV during 200 ms
The intracellular solution contains the following (in mM): K-gluconate 100, KCl 54, MgCl2 3.2, HEPES 5, adjusted to pH 7.3 with KOH. Amphotericin-B solution is prepared as 50 mg/ml stock solution in DMSO and diluted to a final working concentration of 0.1 mg/ml in intracellular solution. The external solution is Dulbecco's Phosphate Buffered Saline (DPBS) and contained the following (in mM): CaCl2 0.90, KCl 2.67, KH2PO4 1.47, MgCl·6H2O 0.493, NaCl 136.9, Na3PO4 8.06, with a pH of 7.4.
Compounds of use in the invention (or reference compounds such as N-cyclohexyl-N-[(7,8-dimethyl-2-oxo-1,2-dihydro-3-quinolinyl)methyl]-N-phenylurea) are dissolved in dimethylsulfoxide (DMSO) at a stock concentration of 10 mM. These solutions are further diluted with DMSO using a Biomek FX (Beckman Coulter) in a 384 compound plate. Each dilution (1 μL) is transferred to another compound plate and external solution containing 0.05% pluronic acid (66 μL) is added. […]

[3] = Determination of brain tissue binding (equilibrium dialysis); format: in vitro ADME; conditions: Sprague Dawley, rat whole brain homogenate, 5 h at 37° C.
Method: Sprague Dawley rat whole blood, collected on the week of the experiment using K3-EDTA as an anti-coagulant, is diluted with isotonic phosphate buffer 1:1 (v/v). Sprague Dawley rat whole brain, stored frozen at −20° C., is thawed and homogenised in artificial cerebrospinal fluid (CSF) 1:2 (w/v).
An appropriate amount of test compound is dissolved in DMSO to give a 10 millimolar solution. Further dilutions, to obtain a 166.7 micromolar working solution are then prepared using 50% acetonitrile in MilliQ water. This working solution is used to spike the blood to obtain a final concentration of 0.5 micromolar in whole blood. Similarly, the working solution is used to spike brain samples to obtain a final concentration of 5 micromolar in whole brain. From these spiked blood and brain preparations, control samples (n=3), are immediately extracted and used to calculate the initial recovery of the test items.
150 microL of compound-free buffer (isotonic phosphate buffer for blood or artificial CSF buffer for brain) is dispensed in one half-well and 150 microL of spiked matrix (blood or brain) is loaded in the other half-well, with the two halves separated by a semi-permeable membrane. After an equilibration period of 5 h at 37° C., 50 microL of dialysed matrix (blood or brain) is added to 50 microL of corresponding compound-free buffer, and vice-versa for buffer, such that the volume of buffer to matrix (blood or brain) remains the same. Samples are then extracted by protein precipitation with 300 microL of acetonitrile containing rolipram (control for positive ionization mode) or diclofenac (control for negative ionization mode) as internal standards and centrifuged for 10 min at 3000 rpm. Supernatants are collected (100 microL), diluted with 27% AcN in MilliQ water (200 microL) and then injected into an HPLC-MS/MS or UPLC-MS/MS system to determine the concentration of test compound present.
Blood and brain tissue binding are then determined using the following formulas: Afu=Buffer/Blood or Afu=CSF/Brain
Where Afu=apparent fraction unbound; Buffer=analyte/internal standard ratio determined in the buffer compartment; Blood=analyte/internal standard ratio determined in the blood compartment; Brain=analyte/internal standard ratio determined in the brain compartment.
[formula] where: fucr=Fraction unbound corrected; D=matrix dilution factor (D=2 for blood and D=3 for brain).
Then: % Binding=(1−fucr)×100 % Unbound=100−% Bound Brain/Blood Partition Ratio (Kbb) Determination

SMILES | Ames Result (associated aniline) [1] | Kv3.1 pEC50 [2] | Kv3.1 max R % [2] [%] | fraction unbound at 5 h, 5 micromolar [3] | Ames Result (compound) [1] | EC50 [2] [nM] | pEC50 and maxR in the Kv3.1 assay (in words) [2]
Cc1ccc(Oc2ccc(N)cn2)c2c1OCC21CC1 [aniline associated with RE6/RE11] | Mutagenic for TA1535 in the presence of metabolic activation at 150 ug/plate |  |  |  |  |  | 
Nc1cnc(Oc2cccc3c2C2(CC2)CO3)cn1 [aniline for Example 10] | Non-mutagenic |  |  |  |  |  | 
Cc1ccc(Oc2ccc(N3C(=O)NC(C)(C)C3=O)cn2)c2c1OCC21CC1 [RE6, reference compound] |  | 5.58 | 144 | 0.028 | Non- mutagenic |  | 
Cc1ccc(Oc2cnc(N3C(=O)NC(C)(C)C3=O)cn2)c2c1OCC21CC1 [Example 1, 5,5-dimethyl-3-[5-(7-methylspiro[2H-benzofuran-3,1′-cyclopropane]-4-yl)oxypyrazin-2-yl]imidazolidine-2,4-dione] |  | 5.47 | 164 | 0.043 | Non- mutagenic | 2750 | high pEC50 and high maxR
